The term IC50 denotes the concentration needed to halve the response being measured.

Experimental findings from US9598387B2 (Southern Research Institute, priority 2012, dated 2017) are described below.

For test [1], the system named is Long Evans rats. The experiment in a line: Food self-administration under PR schedule of reinforcement. Format: in vivo, rat. As to conditions: 3.75 mg dose vs 0; t(7)=0.43, p=0.66. Here is the method: These studies were performed using Long Evans rats using standard protocols. Training and testing took place in ventilated and sound-attenuated operant chambers measuring 30×21×18 cm. Each chamber contained two levers, one light above each of the levers, and a food trough. Each lever was positioned 2.5 cm from the rod floor and the food trough (measuring 5×5 cm) was centered between the two levers. A different set of animals (n=8) was trained to press a lever reinforced by food under a FR1 schedule of reinforcement. […] Percentage of baseline BPs for food self-administration was analyzed using a dependent measures t-test comparing the 0 and 3.75 mg doses of 113.

The target in test [2] is human D2-long dopamine receptor (Homo sapiens (Human), UniProt P14416). The experiment in a line: Radioligand binding (125I-IABN competition), D2. As to conditions: HEK cell membranes expressing human D2-long. Here is the method: The affinities of the target compounds were determined using radioligand binding experiments. […] Competition curves were modeled for a single site. Data from competition dose-response curves were analyzed using Tablecurve program (Jandel). IC50 values were converted to equilibrium dissociation constants (Ki values) using the Cheng and Prusoff correction.

The target in test [3] is D2LR (Homo sapiens (Human), UniProt P14416). Nature of the test: β-Arrestin Recruitment Assay, CHO-K1 DRD2L. Format: cell-based. As to conditions: antagonist vs EC80 6 nM Pergolide, CHO-K1 DRD2L cells; read-out: D2 IC50. Here is the method: Antagonist potency of the compounds against agonist induced recruitment of β-arrestin by D3R and D2LR was measured using DiscoverRx PathHunter eXpress kits. […] After incubation at 37° C. for 90 min, the DiscoveRx detection reagent was added, the plates were incubated at room temperature for 60 min and the luminescence was measured on a Synergy 4 plate reader (BioTek). The data were plotted and the agonist EC80 values were calculated using GraphPad Prism software. For antagonist activity, the cells were plated as described above and treated with multiple concentrations (starting from 500 nM, half log dilution, 10 dose points) of the test compounds in Plating Reagent with 0.1% DMSO.
Background: Activated receptors often draw arrestin, which recruitment assays turn into a signal.

In test [4] the target is human D2 dopamine receptors (Homo sapiens (Human), UniProt P14416). The experiment in a line: Whole Cell Adenylyl Cyclase Assay, D2. It counts as cell-based. As to conditions: inhibition of forskolin (100 μM) stimulated cAMP, normalized to quinpirole; compound conc ≥10× Ki (per compound); mean ± S.E.M.
The target of test [5] is human D2L receptors (Homo sapiens (Human), UniProt P14416). Nature of the test: [35S]GTPγS Binding Assay, CHO D2 membranes. Format: biochemical. As to conditions: antagonist vs dopamine; Ke = functional Ki; read-out: CHO-hD2 Ke. The method, then:
Chinese hamster ovary (CHO) cells expressing human D2L and D3 receptors served as the source for membrane fractions which were washed and resuspended with assay buffer containing Mg^2+, Na^+, EGTA, and bovine serum albumin. The GTPγS binding assays were performed in a final volume of 0.5 mL for CHO D2 and 1 mL for CHO D3 containing test drug or dopamine (1 mM for D2 cells, and 100 μM for D3 cells) as indicator of binding plateau, [^35S]GTPγS (0.11 nM for CHO D2 and 0.07 nM for CHO D3, 1,250 Ci/mmole, Perkin Elmer, Boston, Mass. 02118); and cell membrane suspension (in assay buffer and GDP for final concentration of 3 μM for CHO D2 and 6 μM for CHO D3). […] The plateau binding (maximal binding stimulation) with test compound was expressed as percent of maximal binding observed with the full agonist dopamine (% Emax). Antagonist activity was assessed by testing a fixed concentration of the test compound and varying concentration of the agonist, dopamine (0.001-100 μM for CHO D2 and 0.1 nM-10 uM for CHO D3). Ke is the functional Ki (equilibrium dissociation constant) of an antagonist and is calculated according to the equation: [Test Compound]/(EC50-2/EC50-1−1), where EC50-2 is the EC50 value in the presence of the test compound and EC50-1 is the value in the absence of the test compound.
In general terms: GTPγS resists hydrolysis and so accumulates on activated G proteins.

Sequence of human D2L receptors (P14416 whole entry): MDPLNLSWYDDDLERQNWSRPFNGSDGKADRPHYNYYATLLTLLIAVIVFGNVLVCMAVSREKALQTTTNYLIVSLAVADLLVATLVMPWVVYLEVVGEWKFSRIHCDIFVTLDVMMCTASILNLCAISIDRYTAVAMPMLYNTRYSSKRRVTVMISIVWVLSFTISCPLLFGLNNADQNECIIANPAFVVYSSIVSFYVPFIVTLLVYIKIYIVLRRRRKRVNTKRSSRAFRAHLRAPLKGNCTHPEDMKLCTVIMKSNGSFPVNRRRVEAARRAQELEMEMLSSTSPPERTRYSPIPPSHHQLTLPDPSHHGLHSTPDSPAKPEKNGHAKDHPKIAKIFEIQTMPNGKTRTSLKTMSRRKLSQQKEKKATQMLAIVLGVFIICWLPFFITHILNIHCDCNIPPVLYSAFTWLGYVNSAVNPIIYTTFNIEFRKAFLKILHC
Sequence of D2LR (P14416 whole entry): as above
Sequence of human D2-long dopamine receptor (P14416 whole entry): as above
Sequence of human D2 dopamine receptors (P14416 whole entry): as above

For the molecule `CC(C)(C)c1nc(N2CCN(CCCCNC(=O)c3cn4ccccc4n3)CC2)cc(C(F)(F)F)n1` [Compound 113, N-(4-(4-(2-(tert-Butyl)-6-(trifluoromethyl)pyrimidin-4-yl)piperazin-1-yl)butyl)imidazo[1,2-a]pyridine-2-carboxamide], the “percentage of baseline BPs for food self-administration under PR schedule” value in test [1] is given as “did not affect food self-administration”. Also, the Ki in test [2] is 0.511 ± 0.0656 µM; in test [5] it was 0.111 ± 0.025 µM. For the same molecule, the IC50 in test [3] is 0.261 ± 0.054 µM. In addition, the “D2 Cyclase % Inhibition Normalized” value in test [4] was −1.9 ± 13.3%.
